Molecular target: T1, Dimer of Gag-Pol polyprotein [501-599,Q508K,L534I,L564I,C568A,C596A] (Human immunodeficiency virus 1, UniProt P03367, C568A/C596A/L534I/L564I/Q508K)
T1 construct: 501-599
Assay: Protease Inhibition Assay
Conditions: pH 6.5; 37 °C

`CCC(=O)N[C@H](C(=O)N[C@@H](Cc1ccc(O)cc1)[C@H](O)CN[C@H]1Cc2ccc(cc2)OCCCNC(=O)[C@H](C(C)CC)NC1=O)C(C)C` (stereo partly drawn) [(2S)-N-[(2S,3R)-4-{[(8S,11S)-8-[(2S)-butan-2-yl]-7,10-dioxo-2-oxa-6,9-diazabicyclo[11.2.2]heptadeca-1(15),13,16-trien-11-yl]amino}-3-hydroxy-1-(4-hydroxyphenyl)butan-2-yl]-3-methyl-2-propanamidobutanamide] was tested. Which Ki did it give?
Its Ki is 3 nM.

Source: BindingDB's records for doi:10.1021/bi990174x (University of Queensland, 1999)
